Like-named read-outs stand apart in the source and are kept apart here.
How the values were obtained:
SCD1 = biological target: T1, SCD1 (Homo sapiens, UniProt O00767); experiment: Growth inhibition of yeast (ole1Δ) expressing human SCD1 as the sole desaturase; format: cell-based
T1 construct: host or cells: Saccharomyces cerevisiae ole1Δ strain (W303 pdr1Δ pdr3Δ background), plasmid pRS316, TDH3 promoter
T1 sequence (O00767 1-359): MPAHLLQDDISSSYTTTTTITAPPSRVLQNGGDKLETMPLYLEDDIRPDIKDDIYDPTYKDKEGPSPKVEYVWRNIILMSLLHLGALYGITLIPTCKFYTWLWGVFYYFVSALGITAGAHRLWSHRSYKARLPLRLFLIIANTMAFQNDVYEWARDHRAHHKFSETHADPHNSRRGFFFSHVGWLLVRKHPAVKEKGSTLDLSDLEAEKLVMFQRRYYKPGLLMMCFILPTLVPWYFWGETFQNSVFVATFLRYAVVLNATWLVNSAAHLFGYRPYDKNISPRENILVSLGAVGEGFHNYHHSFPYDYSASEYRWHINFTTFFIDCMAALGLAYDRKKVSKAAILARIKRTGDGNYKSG

SCD5 = biological target: T2, SCD5 (Homo sapiens, UniProt Q86SK9); experiment: Growth inhibition of yeast (ole1Δ) expressing human SCD5 as the sole desaturase; format: cell-based
T2 construct: host or cells: Saccharomyces cerevisiae ole1Δ strain (W303 pdr1Δ pdr3Δ background), plasmid pRS316, TDH3 promoter
T2 sequence (Q86SK9 1-330): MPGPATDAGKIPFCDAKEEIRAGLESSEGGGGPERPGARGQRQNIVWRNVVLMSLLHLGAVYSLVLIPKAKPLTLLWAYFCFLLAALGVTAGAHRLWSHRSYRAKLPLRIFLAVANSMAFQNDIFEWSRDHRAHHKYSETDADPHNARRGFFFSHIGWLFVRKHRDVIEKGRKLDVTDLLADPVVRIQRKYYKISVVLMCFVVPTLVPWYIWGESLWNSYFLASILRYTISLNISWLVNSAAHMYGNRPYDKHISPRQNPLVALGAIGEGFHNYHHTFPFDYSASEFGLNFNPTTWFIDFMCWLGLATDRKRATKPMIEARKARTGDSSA

[1] = yeast strain with SCD1 plasmid, OD600 growth read at 40 h, read-out: SCD1 IC50
[2] = yeast strain with SCD5 plasmid, OD600 growth read at 40 h, read-out: SCD5 IC50

Row | Structure (SMILES) | IC50 (SCD1; [1]) [µM] | IC50 (SCD5; [2]) [µM] | IC50 (SCD1) [µM] | IC50 (SCD5) [µM]
1 | O=c1ccc(-c2noc(N3CCC(Cc4ccc(F)c(F)c4)CC3)n2)c[nH]1 [Compound 1] | 14 | 3.8 | – | –
2 | O=c1ccc(-c2noc(N3CCC(Cc4cc(F)cc(F)c4)CC3)n2)c[nH]1 [Compound 2] | > 45 | > 45 | – | –
3 | Cn1cc(NC(=O)N2CCC(Cc3cc(F)cc(F)c3)C2)ccc1=O (centres unmarked) [Compound 3, 3-(3,5-difluorobenzyl)-N-(1-methyl-6-oxo-1,6-dihydropyridin-3-yl)pyrrolidine-1-carboxamide] | 11.3 | 20.7 | – | –
4 | Cn1cc(CC(=O)N2CCC(Cc3cccc(Cl)c3)CC2)ccc1=O [Compound 4, 5-(2-(4-(3-chlorobenzyl)piperidin-1-yl)-2-oxoethyl)-1-methylpyridin-2(1H)-one] | > 45 | 24.7 | – | –
5 | Cn1cc(CC(=O)N2CCC(Oc3cccc(Cl)c3)CC2)ccc1=O [Compound 5, 5-(2-(4-(3-chlorophenoxy)piperidin-1-yl)-2-oxoethyl)-1-methylpyridin-2(1H)-one] | > 45 | > 45 | – | –
6 | Cn1cc(NC(=O)N2CCC(Cc3ccc(F)c(F)c3)CC2)ccc1=O [Compound 7] | > 45 | 5.01 | – | –
7 | Cn1cc(NC(=O)N2CCC(Cc3cc(F)cc(Cl)c3)CC2)ccc1=O [Compound 8, 4-(3-chloro-5-fluorobenzyl)-N-(1-methyl-6-oxo-1,6-dihydropyridin-3-yl)piperidine-1-carboxamide] | 2.32 | 0.83 | – | –
8 | Cn1cc(NC(=O)N2CCC(Cc3cc(F)ccc3F)CC2)ccc1=O [Compound 10] | > 45 | > 45 | – | –
9 | Cn1cc(NC(=O)N2CCC(Nc3cc(F)cc(F)c3)CC2)ccc1=O [Compound 11, 4-(3,5-difluorophenylamino)-N-(1-methyl-6-oxo-1,6-dihydropyridin-3-yl)piperidine-1-carboxamide] | – | – | > 45 | > 45
10 | Cn1cc(-c2nc(N3CCC(Oc4cc(F)cc(F)c4)CC3)no2)ccc1=O [Compound 15, 5-(3-(4-(3,5-difluorophenoxy)piperidin-1-yl)-1,2,4-oxadiazol-5-yl)-1-methylpyridin-2(1H)-one] | 12.4 | 0.86 | – | –
11 | Cn1cc(-c2nc(N3CCC(Oc4cccc(F)c4Cl)CC3)no2)ccc1=O [Compound 16, 5-(3-(4-(2-chloro-3-fluorophenoxy)piperidin-1-yl)-1,2,4-oxadiazol-5-yl)-1-methylpyridin-2(1H)-one] | 0.35 | 0.59 | – | –
12 | Cn1cc(-c2nc(N3CCC(Cc4cc(F)cc(F)c4)CC3)no2)ccc1=O [Compound 17, 5-(3-(4-(3,5-difluorobenzyl)piperidin-1-yl)-1,2,4-oxadiazol-5-yl)-1-methylpyridin-2(1H)-one] | 0.72 | 0.01 | – | –
13 | Cn1cc(-c2nnc(N3CCC(Cc4cccc(F)c4)CC3)o2)ccc1=O [Compound 18, 5-(5-(4-(3-fluorobenzyl)piperidin-1-yl)-1,3,4-oxadiazol-2-yl)-1-methylpyridin-2(1H)-one] | > 45 | 1.93 | – | –
14 | Cn1cc(-c2nnc(N3CCC(Cc4cc(F)cc(F)c4)CC3)o2)ccc1=O [Compound 19, 5-(5-(4-(3,5-difluorobenzyl)piperidin-1-yl)-1,3,4-oxadiazol-2-yl)-1-methylpyridin-2(1H)-one] | 9.72 | 1 | – | –
15 | Cn1cc(-c2noc(N3CCC(Cc4ccc(F)c(F)c4)CC3)n2)ccc1=O [Compound 20, 5-(5-(4-(3,4-difluorobenzyl)piperidin-1-yl)-1,2,4-oxadiazol-3-yl)-1-methylpyridin-2(1H)-one] | 2.7 | 1.4 | – | –
16 | Cn1cc(-c2noc(N3CCC(Cc4cc(F)cc(F)c4)CC3)n2)ccc1=O [Compound 21, 5-(5-(4-(3,5-difluorobenzyl)piperidin-1-yl)-1,2,4-oxadiazol-3-yl)-1-methylpyridin-2(1H)-one] | 10 | 3 | – | –
17 | Cn1nc(NC(=O)N2CC(Cc3cccc(Cl)c3)C2)ccc1=O [Compound 22, 3-(3-chlorobenzyl)-N-(1-methyl-6-oxo-1,6-dihydropyridazin-3-yl)azetidine-1-carboxamide] | 2.59 | 0.95 | – | –
18 | Cn1nc(NC(=O)N2CC(Oc3ccc(F)c(F)c3)C2)ccc1=O [Compound 23, 3-(3,4-difluorophenoxy)-N-(1-methyl-6-oxo-1,6-dihydropyridazin-3-yl)azetidine-1-carboxamide] | 1.3 | 1.8 | – | –
19 | Cn1nc(NC(=O)N2CC(Oc3cc(F)cc(F)c3)C2)ccc1=O [Compound 24, 3-(3,5-difluorophenoxy)-N-(1-methyl-6-oxo-1,6-dihydropyridazin-3-yl)azetidine-1-carboxamide] | 1.1 | 2.9 | – | –
20 | Cn1nc(NC(=O)N2CCC(Cc3cccc(Cl)c3)C2)ccc1=O (centres unmarked) [Compound 25, 3-(3-chlorobenzyl)-N-(1-methyl-6-oxo-1,6-dihydropyridazin-3-yl)pyrrolidine-1-carboxamide] | 2.75 | 5.29 | – | –
21 | Cn1nc(NC(=O)N2CCC(Cc3cc(F)cc(F)c3)C2)ccc1=O (centres unmarked) [Compound 26, 3-(3,5-difluorobenzyl)-N-(1-methyl-6-oxo-1,6-dihydropyridazin-3-yl)pyrrolidine-1-carboxamide] | 4.15 | 5.68 | – | –
22 | Cn1nc(NC(=O)N2CC[C@@H](Oc3ccc(F)c(F)c3)C2)ccc1=O [Compound 27, (3R)-3-(3,4-difluorophenoxy)-N-(1-methyl-6-oxo-1,6-dihydropyridazin-3-yl)pyrrolidine-1-carboxamide] | 17 | > 45 | – | –
23 | Cn1nc(NC(=O)N2CC[C@@H](Oc3cc(F)cc(F)c3)C2)ccc1=O [Compound 28, (3R)-3-(3,5-difluorophenoxy)-N-(1-methyl-6-oxo-1,6-dihydropyridazin-3-yl)pyrrolidine-1-carboxamide] | 8.1 | > 45 | – | –
24 | Cn1nc(NC(=O)N2CC[C@H](Oc3ccc(F)c(F)c3)C2)ccc1=O [Compound 29, (3S)-3-(3,4-difluorophenoxy)-N-(1-methyl-6-oxo-1,6-dihydropyridazin-3-yl)pyrrolidine-1-carboxamide] | 0.42 | 2.8 | – | –
25 | Cn1nc(NC(=O)N2CC[C@H](Oc3cc(F)cc(F)c3)C2)ccc1=O [Compound 30, (3S)-3-(3,5-difluorophenoxy)-N-(1-methyl-6-oxo-1,6-dihydropyridazin-3-yl)pyrrolidine-1-carboxamide] | 0.33 | 2.9 | – | –
26 | Cn1nc(NC(=O)N2CCC[C@@H](c3ccc(Cl)cc3)CC2)ccc1=O [Compound 31] | 39 | > 45 | – | –
27 | Cn1nc(NC(=O)N2CCC[C@@H](c3cc(F)cc(F)c3)CC2)ccc1=O [Compound 32] | 7.2 | 21 | – | –
28 | Cn1nc(NC(=O)N2CCC(=Cc3cc(F)cc(F)c3)CC2)ccc1=O [Compound 33, 4-(3,5-difluorobenzylidene)-N-(1-methyl-6-oxo-1,6-dihydropyridazin-3-yl)piperidine-1-carboxamide] | 0.44 | 0.14 | – | –
29 | O=C(Cc1ccc(=O)[nH]n1)N1CCC(Cc2cccc(Cl)c2)CC1 [Compound 34] | > 45 | 8.2 | – | –
30 | Cn1nc(-c2nc(N3CCC(Cc4cccc(F)c4)CC3)no2)ccc1=O [Compound 114, 6-(3-(4-(3-fluorobenzyl)piperidin-1-yl)-1,2,4-oxadiazol-5-yl)-2-methylpyridazin-3(2H)-one] | – | 0.01 | – | –
